Values of other authors in patent publication EP4670741A1 (priority 2023, dated 2024).

How the values were obtained:
[1] = test system: various cancer cell lines; conditions: read-out: IC50 values; 140 cell lines derived from various tumor types; majority of tested cancer cells
Topoisomerase I = target: T1, Topoisomerase I (Homo sapiens, UniProt P11387); conditions: Topoisomerase I inhibitor
T1 sequence (P11387 1-765): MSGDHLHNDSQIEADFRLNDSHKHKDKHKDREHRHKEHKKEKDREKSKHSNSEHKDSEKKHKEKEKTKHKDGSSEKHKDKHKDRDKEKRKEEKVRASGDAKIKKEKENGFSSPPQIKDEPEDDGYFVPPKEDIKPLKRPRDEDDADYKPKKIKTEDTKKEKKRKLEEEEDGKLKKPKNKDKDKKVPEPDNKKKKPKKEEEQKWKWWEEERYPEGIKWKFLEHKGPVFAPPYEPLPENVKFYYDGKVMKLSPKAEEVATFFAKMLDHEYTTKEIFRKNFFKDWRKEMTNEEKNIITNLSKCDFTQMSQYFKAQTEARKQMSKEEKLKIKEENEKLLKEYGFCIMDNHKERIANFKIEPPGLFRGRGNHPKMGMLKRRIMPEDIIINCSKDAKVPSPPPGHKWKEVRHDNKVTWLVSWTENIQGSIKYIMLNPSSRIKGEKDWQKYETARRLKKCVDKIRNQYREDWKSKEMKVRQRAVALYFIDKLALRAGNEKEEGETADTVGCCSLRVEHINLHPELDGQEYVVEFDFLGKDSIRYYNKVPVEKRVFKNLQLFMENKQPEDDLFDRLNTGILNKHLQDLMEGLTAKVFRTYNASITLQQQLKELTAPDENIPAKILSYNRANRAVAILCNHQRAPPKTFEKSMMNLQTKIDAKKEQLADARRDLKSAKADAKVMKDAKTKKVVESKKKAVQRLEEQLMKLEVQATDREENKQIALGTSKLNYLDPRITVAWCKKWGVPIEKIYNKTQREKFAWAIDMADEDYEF

SMILES | IC50 [1] | IC50 (Topoisomerase I)
CC[C@@]1(O)C(=O)OCc2c1cc1n(c2=O)Cc2cc3cc4c(cc3nc2-1)OCO4 [FL118] | < 100 nM | 
CC[C@@]1(O)C(=O)OCc2c1cc1n(c2=O)Cc2c-1nc1cc(F)c(C)c3c1c2[C@@H](NC(=O)CO)CC3 [Dxd] |  | 310 nM
